# Results as given in patent publication US10485236B2, “Triazole derivatives, intermediates thereof and their use as fungicides” (Bayer CropScience Aktiengesellschaft, priority 2015, dated 2019).
# Marks after values point to notes of the source that are not given here.
# Experiment: Measurement of LogP values by HPLC on reversed phase columns (EEC directive 79/831 Annex V.A8)
# Type: physicochemical
# Conditions: not given
# Experimental: [table] If more than one Log P value is available within the same method, all the values are given and separated by “+”. Calibration was done with straight-chain alkan2-ones (with 3 to 16 carbon atoms) with known Log P values (measurement of Log P values using retention times with linear interpolation between successive alkanones). Lambda-max-values were determined using UV-spectra from 200 nm to 400 nm and the peak values of the chromatographic signals.
row,LogP,SMILES
1,2.68^[a],CC(O)(Cn1cncn1)c1ccc(Oc2ccc(Cl)cc2)nc1C(F)(F)F (stereo not shown) [I.96]
2,3.80^[a],OC(Cn1cncn1)(c1ccc(Oc2ccc(S(F)(F)(F)(F)F)cc2)nc1C(F)(F)F)C1CC1 (stereo not shown) [I.97]
3,3.87^[a],CCCCC(O)(Cn1cncn1)c1ccc(Oc2ccc(Cl)cc2)nc1C(F)(F)F (stereo not shown) [I.98]
4,3.55^[a],CCCC(O)(Cn1cncn1)c1ccc(Oc2ccc(Cl)cc2)nc1C(F)(F)F (stereo not shown) [I.100]
5,3.19^[a],CCC(O)(Cn1cncn1)c1ccc(Oc2ccc(Cl)cc2)nc1C(F)(F)F (stereo not shown) [I.103]
6,4.49^[a],FC(F)c1ccc(Oc2ccc(C3(C4CC4)CO3)c(C(F)(F)F)n2)cc1 (stereo not shown) [IX.05]
7,4.44^[a],CC1(c2ccc(Oc3ccc(Cl)cc3)nc2C(F)(F)F)CO1 (stereo not shown) [IX.06]
8,5.11^[a],FC(F)(F)c1nc(Oc2ccc(Br)cc2)ccc1C1(C2CC2)CO1 (stereo not shown) [IX.08]
9,5.22^[a],FC(F)(F)c1nc(Oc2ccc(S(F)(F)(F)(F)F)cc2)ccc1C1(C2CC2)CO1 (stereo not shown) [IX.09]
10,5.00^[a],FC(F)(F)c1ccc(Oc2ccc(C3(C4CC4)CO3)c(C(F)(F)F)n2)cc1 (stereo not shown) [IX.11]
11,4.32^[a],CC(=O)c1cnc(Oc2ccc(S(F)(F)(F)(F)F)cc2)cc1C(F)(F)F [V.03]
12,3.62^[a],CC(=O)c1cnc(Oc2ccc(C(F)F)cc2)cc1C(F)(F)F [V.04]
13,3.35^[a],CC(=O)c1ccc(Oc2ccc(Cl)cc2)nc1C(F)F [V.05]
14,4.37^[a],CC(=O)c1ccc(Oc2ccc(Cl)cc2)nc1OC(F)(F)F [V.06]
15,4.09^[a],CC(=O)c1cnc(Oc2ccc(Cl)cc2F)cc1C(F)(F)F [V.07]
16,4.10^[a],CC(=O)c1ccc(Oc2ccc(Cl)c(Cl)c2)nc1Cl [V.11]
17,3.11^[a],CC(=O)c1ccc(Oc2ccc(F)cc2)nc1Cl [V.12]
18,2.73^[a],CC(=O)c1ccc(Oc2ccc(Cl)cc2)nn1 [V.13]
19,3.15^[a],CC(=O)c1ccc(Oc2ccc(C(F)F)cc2)nc1Cl [V.14]
20,4.20^[a],CC(=O)c1cnc(Oc2ccc(OC(F)(F)F)cc2)cc1C(F)(F)F [V.15]
21,4.09^[a],CC(=O)c1ccc(Oc2ccc(S(F)(F)(F)(F)F)cc2)nc1C(F)(F)F [V.16]
22,3.96^[a],CC(=O)c1ccc(Oc2ccc(C(F)(F)F)cc2)nc1C(F)(F)F [V.17]

row,LogP,SMILES
1,3.87^[a],CC(=O)c1cnc(Oc2ccc(C(F)(F)F)cc2)cc1Cl [V.18]
2,3.11^[a],CC(=O)c1cnc(Oc2ccc(Cl)cc2)cc1C(C)=O [V.19]
3,3.85^[a],CC(=O)c1ccc(Oc2ccc(Br)cc2)nc1C(F)(F)F [V.20]
4,3.51^[a],CC(=O)c1cnc(Oc2ccc(Cl)cc2)cc1Cl [V.22]
5,3.51^[a],CC(=O)c1ncc(Oc2ccc(Cl)cc2)nc1Cl [V.23]
6,3.51^[a],CC(=O)c1ccc(Oc2ccc(Cl)cc2)nc1F [V.24]
7,4.04^[a],CC(=O)c1cnc(Oc2ccc(C(F)(F)F)cc2)cc1C(F)(F)F [V.25]
8,3.45^[a],CC(=O)c1ccc(Oc2ccc(Cl)cc2)nc1Cl [V.26]
9,3.99^[a],CC(=O)c1cnc(Oc2ccc(Br)cc2)cc1C(F)(F)F [V.27]
10,3.89^[a],CC(=O)c1ccc(Oc2ccc(OC(F)(F)F)cc2)nc1Cl [V.28]
11,3.44^[a],COc1ccc(Oc2ccc(C(C)=O)c(Cl)n2)c(Cl)c1 [V.29]
12,3.99^[a],CC(=O)c1ccc(Oc2ccc(S(F)(F)(F)(F)F)cc2)nc1Cl [V.30]
13,4.06^[a],CC(=O)c1ccc(Oc2c(F)cc(Cl)cc2F)nc1C(F)(F)F [V.31]
14,3.26^[a],CC(=O)c1ccc(Oc2ccc(C(F)F)cc2)nc1C(F)(F)F [V.32]
15,4.36^[a],CC(=O)c1ncc(Oc2ccc(Cl)cc2)nc1Oc1ccc(Cl)cc1 [V.33]
16,3.46^[a],CC(=O)c1ccc(Oc2ccc(Br)cc2)nc1C(F)F [V.34]
17,4.04^[a],CC(=O)c1ccc(Oc2ccc(OC(F)(F)F)cc2)nc1C(F)(F)F [V.35]
18,3.74^[a],CC(=O)c1cnc(Oc2ccc(Br)cc2)cc1C(F)F [V.36]
19,3.57^[a],CC(=O)c1cnc(Oc2ccc(Cl)cc2)cc1C(F)F [V.37]
20,3.87^[a],CC(=O)c1ccc(Oc2ccc(Cl)cc2F)nc1C(F)(F)F [V.38]
21,4.37^[a],O=C(c1ccc(Oc2ccc(C(F)(F)F)cc2)nc1C(F)(F)F)C1CC1 [V.39]
22,4.49^[a],O=C(c1ccc(Oc2ccc(Br)cc2)nc1C(F)(F)F)C1CC1 [V.40]

row,LogP,SMILES
1,3.21^[a],O=Cc1ccc(Oc2ccc(C(=O)C3CC3)c(C(F)(F)F)n2)cc1 [V.42]
2,4.67^[a],O=C(c1ccc(Oc2ccc(S(F)(F)(F)(F)F)cc2)nc1C(F)(F)F)C1CC1 [V.43]
3,3.80^[a],O=C(c1ccc(Oc2ccc(C(F)F)cc2)nc1C(F)(F)F)C1CC1 [V.44]
4,4.20^[a],CCC(=O)c1ccc(Oc2ccc(Cl)cc2)nc1C(F)(F)F [V.45]
5,4.59^[a],CCCC(=O)c1ccc(Oc2ccc(Cl)cc2)nc1C(F)(F)F [V.46]
6,4.98^[a],CC(C)CC(=O)c1ccc(Oc2ccc(Cl)cc2)nc1C(F)(F)F [V.47]
7,5.03^[a],CCCCC(=O)c1ccc(Oc2ccc(Cl)cc2)nc1C(F)(F)F [V.48]
8,3.23^[a],O=C(CCl)c1ccc(Oc2ccccc2)nc1Cl [VI.03]
9,3.72^[a],O=C(CCl)c1ccc(Oc2ccc(Cl)cc2)nc1Cl [VI.04]
10,3.28^[a],O=C(CCl)c1cnc(Oc2ccccc2)cc1Cl [VI.05]
11,3.77^[a],O=C(CCl)c1cnc(Oc2ccc(Cl)cc2)cc1Cl [VI.06]
12,4.58^[a],O=C(CBr)c1ccc(Oc2ccc(Cl)c(Cl)c2)nc1Cl [VI.07]
13,4.09^[a],O=C(CCl)c1ccc(Oc2ccc(OC(F)(F)F)cc2)nc1Cl [VI.08]
14,3.39^[a],O=C(CCl)c1ccc(Oc2ccc(F)cc2)nc1Cl [VI.09]
15,3.78^[a],O=C(CCl)c1ncc(Oc2ccc(Cl)cc2)nc1Cl [VI.10]
16,3.62^[a],O=C(CCl)c1ccc(Oc2ccc(Cl)cc2)nc1C(F)F [VI.11]
17,4.51^[a],O=C(CCl)c1ccc(Oc2ccc(Cl)cc2)nc1OC(F)(F)F [VI.12]
18,3.71^[a],COc1ccc(Oc2ccc(C(=O)CCl)c(Cl)n2)c(Cl)c1 [VI.13]
19,4.29^[a],O=C(CBr)c1cnc(Oc2ccc(Cl)cc2)cc1C(F)(F)F [VI.14]
20,4.34^[a],O=C(CBr)c1cnc(Oc2ccc(Br)cc2)cc1C(F)(F)F [VI.15]
21,3.42^[a],O=C(CCl)c1ccc(Oc2ccc(C(F)F)cc2)nc1Cl [VI.16]
22,3.57^[a],O=C(CBr)c1ccc(Oc2ccc(C(F)F)cc2)nc1Cl [VI.17]

row,LogP,SMILES
1,4.23^[a],O=C(CBr)c1ccc(Oc2ccc(Br)cc2)nc1C(F)(F)F [VI.18]
2,4.11^[a],O=C(CCl)c1ccc(Oc2ccc(Br)cc2)nc1C(F)(F)F [VI.19]
3,3.69^[a],O=C(CCl)c1ccc(Oc2ccc(Cl)cc2)nc1F [VI.20]
4,4.37^[a],O=C(CCl)c1cnc(Oc2ccc(OC(F)(F)F)cc2)cc1C(F)(F)F [VI.21]
5,4.21^[a],O=C(CCl)c1cnc(Oc2ccc(C(F)(F)F)cc2)cc1C(F)(F)F [VI.22]
6,4.16^[a],O=C(CCl)c1cnc(Oc2ccc(Br)cc2)cc1C(F)(F)F [VI.23]
7,4.34^[a],O=C(CBr)c1cnc(Oc2ccc(Cl)cc2F)cc1C(F)(F)F [VI.24]
8,4.15^[a],O=C(CCl)c1cnc(Oc2ccc(Cl)cc2F)cc1C(F)(F)F [VI.25]
9,3.76^[a],O=C(CCl)c1cnc(Oc2ccc(C(F)F)cc2)cc1C(F)(F)F [VI.26]
10,3.99^[a],O=C(CBr)c1cnc(Oc2ccc(C(F)F)cc2)cc1C(F)(F)F [VI.27]
11,4.19^[a],O=C(CCl)c1ccc(Oc2ccc(C(F)(F)F)cc2)nc1C(F)(F)F [VI.28]
12,4.29^[a],O=C(CCl)c1ccc(Oc2ccc(S(F)(F)(F)(F)F)cc2)nc1C(F)(F)F [VI.29]
13,4.21^[a],O=C(CCl)c1ccc(Oc2ccc(S(F)(F)(F)(F)F)cc2)nc1Cl [VI.30]
14,4.26^[a],O=C(CCl)c1ccc(Oc2c(F)cc(Cl)cc2F)nc1C(F)(F)F [VI.31]
15,4.18^[a],O=C(CBr)c1ccc(Oc2c(F)cc(Cl)cc2F)nc1C(F)(F)F [VI.32]
16,4.07^[a],O=C(CCl)c1ccc(Oc2ccc(OC(F)(F)F)cc2)nc1C(F)(F)F [VI.33]
17,4.19^[a],O=C(CBr)c1ccc(Oc2ccc(Cl)cc2)nc1C(F)(F)F [VI.34]
18,4.11^[a],O=C(CCl)c1ccc(Oc2ccc(Cl)cc2F)nc1C(F)(F)F [VI.35]
19,3.50^[a],O=C(CCl)c1ccc(Oc2ccc(C(F)F)cc2)nc1C(F)(F)F [VI.36]
20,3.06^[a],O=C(Cn1cncn1)c1ccc(Oc2ccc(Cl)c(Cl)c2)nc1Cl [VII.03]

# Same assay, conditions: reversed phase HPLC column, method [a]: LC-UV, acidic range, 0.1% formic acid in water and acetonitrile as eluent
row,chromatographic logP,SMILES
1,4.8,"FC(F)(F)c1nc(Oc2ccc(Cl)cc2)ccc1C1(C2CC2)CO1 (stereo not shown) [IX.07, 6-(4-chlorophenoxy)-3-(2-cyclopropyloxiran-2-yl)-2-(trifluoromethyl)pyridine]"
2,3.8,"CC(=O)c1ccc(Oc2ccc(Cl)cc2)nc1C(F)(F)F [V.01, 1-[6-(4-chlorophenoxy)-2-(trifluoromethyl)-3-pyridyl]ethanone]"
3,3.89,"CC(=O)c1cnc(Oc2ccc(Cl)cc2)cc1C(F)(F)F [V.02, 1-[6-(4-chlorophenoxy)-4-(trifluoromethyl)-3-pyridyl]ethanone]"
4,4.17,"O=C(c1ccc(Oc2ccc(Cl)cc2)nc1C(F)(F)F)C1CC1 [V.41, [6-(4-chlorophenoxy)-2-(trifluoromethyl)-3-pyridyl]-cyclopropyl-methanone]"

# Same assay, conditions: reversed phase HPLC column, method [a]; compounds of formula (VI), Table 3
row,chromatographic logP,SMILES
1,4.01,"O=C(CCl)c1ccc(Oc2ccc(Cl)cc2)nc1C(F)(F)F [VI.01, 2-chloro-1-[6-(4-chlorophenoxy)-2-(trifluoromethyl)-3-pyridyl]ethanone]"
